The values below come from patent US8378098B2, “Imidazol[1,2-α]quinoxalines and derivatives for the treatment of cancers” (Universite de Montpellier I, priority 2007, dated 2013).

Structures are written as SMILES. Entries after “also recorded” stand apart in the source; their conditions may differ.

Data set [1] has as its system HTLV-I-positive human T lines (HuT-102 and C8166, and MT2). Description: cell growth of HTLV-I-positive human T lines (CellTiter 96, trypan blue exclusion). As to conditions: 1 to 10 μM, 24-96 h. The format is cell-based. The protocol:
FIG. 2: HTLV-I-positive and HTLV-I-negative malignant human cell lines are sensitive to EAPB0203, but activated or inactivated normal T lymphocytes are resistant. Effects of EAPB0203 on the growth of human T lines not infected by HTLV-I (CEM, Jurkatt, Molt-4 and HuT-78), HTLV-I-positive human T lines (HuT-102 and C8166, and MT2), and normal lymphocytes at rest or activated by PHA. The activated normal PBMC were supplemented with 2% PHA. EAPB0203 was added at the concentrations indicated in mole/l for 24-96 h. Cell growth is analyzed with the “CellTiter 96®” nonradioactive cell growth kit. The results are expressed as a percentage of the control (0.1% DMSO) and represent the mean of the results obtained in three independent experiments.
The in vitro activity of EAPB0203 on adult T-cell leukemia (ATL) transformed by retrovirus HTLV-I (HuT-102, MT2 . . . ) and malignant HTLV-I-negative T-cells (CEM, Jurkatt . . . ) was evaluated. Initially, the effect of EAPB0203 on cell growth of these lines was evaluated by two techniques, the nonradioactive “CellTiter 96®” cell growth kit and the trypan blue exclusion method.

The next data set can be described thus: in vivo. Particulars: rat, iv, 5 mg/kg. As for the experimental part: Methods of assaying compounds EAPB0203, EAPB0503 and EAPB0603 by high performance liquid chromatography and detection by mass spectrometry (LC/ESI-MS) were developed and validated in human and rat plasmas. Pre-treatment of the samples consists of a liquid solid extraction preceded by precipitation of plasma proteins in acid medium. The chromatographic column used is C8 Zorbax eclipse XDB and the mobile phase (gradient) a mixture of acetonitrile and formate buffer (pH 3) (flow rate, 0.8 ml/min). The […] from 92 to 113%. The extraction coefficients are higher than 72%. The quantification limit is 5 μg/l for all analytes. Stability tests of the compounds in the matrices were also carried out. These methods were used to determine the pharmacokinetic parameters of compounds EAPB0203, EAPB0503 and EAPB0603 in the rat. The lethal doses 50% of compounds EAPB0203 and EAPB0503 are respectively 14.8 and 7.6 mg/kg.

The subject of another data set is RPMI7591 (melanoma). Description: in vitro cytotoxicity on RPMI7591 melanoma line. The format is cell-based. Particulars: Homo sapiens; Table 2; unit inferred; read-out: IC50 RPMI7591. The source says: (§1) Several human carcinoma cell lines were used: • Lines A375, M4Be, RPMI7591 from human melanoma. • Line LS174T from colon carcinoma. • Line A 2780 from ovarian carcinoma. • The Raji line from B lymphoma. • Line MCF7 from breast carcinoma.

A further data set has as its system M4Be human melanoma. Description: anti-proliferative activity in vivo, M4Be human melanoma xenografted in athymic mice. The protocol: FIG. 1: Effects of fotemustine (20 mg/kg once per week for 3 weeks) and EAPB0203 (20 mg/kg twice per week for 3 weeks) on tumour growth in athymic Swiss mice xenografted with M4Be human melanoma cell line.
Δ, control; ▪, EAPB0203; ●, fotemustine. The data are the results of only one experiment carried out on six mice per group. The results are represented as mean±SEM.
In this study, data are presented relating to the activity of EAPB0203 on the volume of a type of human melanoma tumour model (M4Be lines), xenografted in athymic mice. This study required as a preliminary step several tests of grafts of human melanoma cell lines in athymic mice before establishing the adequate animal model. The in vivo study was performed following the in vitro experiments described previously.
The activity and specificity of EAPB0203 in vivo on tumour growth of human melanoma are evaluated by monitoring tumour development in mice carrying M4Be melanoma treated by administration of fotemustine and EAPB0203 at various doses.
For this study, 18 Swiss nude mice (3 groups of 6 mice) were used. M4Be cancer cells in suspension were injected subcutaneously into the right flank of each athymic Swiss nude female 7-week-old mouse weighing 20-22 g at the beginning of the protocol. The mice were then maintained in a sterile atmosphere and received aseptic food and water. The weight of the mouse and the growth of the tumour in three dimensions were recorded twice a week.
A first group of 6 mice (reference) will receive fotemustine by intra-peritoneal route at a dose of 20 mg/kg once per week for 3 weeks, beginning 7 days after inoculation at the time when the tumour will be visible and palpable. A second group of 6 mice will receive EAPB0203 at the same dose of 20 mg/kg via intra-peritoneal route but twice per week (40 mg/kg per week). The third group (control) of 6 mice will receive only the administration carrier. Tumour volume is calculated by the following formula: length X width X height X 0.52, and is expressed as mean±SEM mm^3.
For fotemustine and EAPB0203, the sequence of administrations is a treatment of three weeks, then two weeks without treatment, and then a second treatment of three weeks.
(In general: A xenograft is tissue or cells of one species grown in another, often human tumour cells in immunodeficient mice.)

A further data set concerns MCF7 (breast cancer). Description: in vitro cytotoxicity on MCF7 breast cancer line. The format is cell-based. As to conditions: Homo sapiens, Table 2, unit inferred.
Description: as §1

Usually Vd stands for the apparent volume that relates the amount in the body to the concentration in plasma or blood. Read a low Vd as little distribution into tissue. One may read the clearance as the volume of plasma or blood freed of the substance per unit of time. Read a high clearance as a high capacity for elimination. In general, half-life refers to the time in which the quantity being followed falls by half. Broadly, the IC50 is the point on the concentration scale where inhibition reaches its midpoint. For the molecule `CNc1nc2ccccc2n2c(CCc3ccccc3)cnc12` [EAPB0203, N-methyl-1-(2-phenylethyl)imidazo[1,2-a]quinoxalin-4-amine], the “growth of ATL cells (HTLV-I-positive)” value in data set [1] is listed as “sensitive; also recorded: progressive, dose-dependent inhibition”. For the same molecule, in the data set “in vivo”, the Vd stood at 10.6 L/kg, the “area under the curve of plasma concentrations” value is 870 ng·h/mL, the clearance was 48.3 mL/min/kg and the half-life is 2.6 h. For the same molecule, in the data set on RPMI7591 (melanoma), the IC50 is 4230 ± 480 nM. In addition, the “tolerance (weight, side effects)” value with M4Be human melanoma (20 mg/kg twice per week, intra-peritoneal, mice carrying M4Be melanoma) is reported as “well tolerated without loss of weight or apparent side effects”. In addition, the “tumour growth compared to control mice and fotemustine mice” value with M4Be human melanoma (EAPB0203 20 mg/kg twice per week i.p., FIG. 1) is “significant delay in tumour growth”. In the data set on M4Be human melanoma (day 76, 20 mg/kg twice per week i.p.), the “tumour volume of a remaining mouse when last fotemustine mice were euthanatized” value is reported as “less than 2 cm^3”. Besides, in the data set on MCF7 (breast cancer), it took 1080 ± 460 nM to reach half-maximal inhibition (IC50).
